What all share (assay): cells
Design in all cases: species or system panel of 482 human cancer cell lines; ATPLite luminescence growth inhibition after treatment, nine-point dilution curve, 482 cancer cell lines, 384-well
Common to all, as to conditions: 72 h, recommended growth medium
(In general: In ATP-based viability assays light output follows the ATP content of the culture.)

One assay concerns KYSE520_OESOPHAGUS
Put shortly: (§1)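 Growth inhibition was measured across a panel of 482 cancer cell lines. Cells were plated at 500 cells per well in recommended growth media in black, tissue culture treated 384-well plates, centrifuged to equilibrate, and incubated 24 h before dosing. Compounds were tested as nine-point dilution curves for 72 h, with viability read by ATPLite luminescence relative to DMSO-treated controls.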

The test system of a further assay is HCC95_LUNG. Put shortly:
as §1

A further assay relates to TT_OESOPHAGUS
Put shortly: as §1

In the next assay the test system is HEP3B217_LIVER. The gist of the method:
as §1

Another assay relates to CHP126_AUTONOMIC_GANGLIA. Put shortly: as §1
The test system of the next assay is A427_LUNG. The gist of the method: as §1
A further assay concerns SNU620_STOMACH. The gist of the method: as §1
In the next assay the test system is NCIH2106_LUNG. Put shortly:
as §1

A further assay relates to NCIH1048_LUNG. Put shortly:
as §1

Assay [1] relates to KG1_HAEMATOPOIETIC_AND_LYMPHOID_TISSUE. Put shortly: as §1
In the next assay the test system is NCIH1568_LUNG. The gist of the method:
as §1

Assay [2] has as its system U2932_HAEMATOPOIETIC_AND_LYMPHOID_TISSUE. Put shortly: as §1

With `CCN(C/C=C/C#CC(C)(C)C)Cc1cccc(OCc2cc(-c3ccsc3)cs2)c1` [NB-598], the GI50 (commonly the concentration giving 50% growth inhibition) in the assay on KYSE520_OESOPHAGUS came to 45500 nM; in the assay with HCC95_LUNG, 134 nM; in the assay on TT_OESOPHAGUS it was 296 nM; in the assay with HEP3B217_LIVER it was 9960 nM; in the assay with CHP126_AUTONOMIC_GANGLIA, 38.2 nM; with A427_LUNG it was 5.55 nM. The GI50 with SNU620_STOMACH is 1780 nM; with NCIH2106_LUNG, 12.1 nM; in the assay on NCIH1048_LUNG it was 9060 nM; in [1], 23900 nM; in the assay with NCIH1568_LUNG, 7980 nM; in [2], 1290 nM.
